These results are taken from patent US20040024038A1, “GABA enhancers in the treatment of diseases relating to reduced neurosteroid activity” (H. Lundbeck A/S, priority 2000, published 2004).

The subject of one test is Female mice. In words: Elevated plus maze in progesterone withdrawal (PWD) model of PMS. The class given is in vivo. As to conditions: for Time Open Arm, Mean / Grid Cross, Mean (number of total grid crosses, general locomotor activity) / Time Outside Rail, Mean: THIP 1.25 mg/kg; for Time Open Arm, Mean: tested 40 minutes after injection, 10 min plus maze; for Grid Cross, Mean (number of total grid crosses, general locomotor activity) / Time Outside Rail, Mean: 40 minutes after injection. The method, then: The described model is a hormone withdrawal model of PMS in the rat, based on the prevailing hypothesis that dysphoric mood is predominantly associated with declining hormone levels (i.e., “hormone withdrawal”) in women with PMS.
Female mice (Charles River) were housed in pairs under a 14 hour light and 10 hour dark cycle with food and water ad libitum. All animals were tested during the light portion of the circadian cycle. In female mice, estrous cycle stage was determined by microscopic examination of the vaginal lavage, as described previously (Smith, 1987) and by measures of vaginal impedance (Bartlewski, 1999; Bartos, 1977; Koto, 1987; Koto, 1987) throughout one entire cycle prior to testing. Only females in diestrous were used as subjects.
Progesterone implants were made from silicone tubing (Nalgene Co, 1/16″i.d×1/8″ o.d.) which was cut to size depending on the body weight of the animal (10 mm tubing per 100 g), filled with crystalline progesterone and sealed with silastic medical adhesive (Dow Corning). The sealed capsules were incubated overnight in a solution containing 1% gelatine and 0.9% saline in a water bath (37° C.) with gentle shaking overnight. Sham implants are empty sealed tubes of the same dimensions. Rats were then anesthestized with 2% halothane (2-bromo-2-chloro-1,1,1-trifluroethane) in oxygen and the capsules implanted subcutaneously in the abdomen. Removal of the implants also occurred under the same regime of halothane anesthesia, and implanted s.c. under anesthesia in the abdominal area of the rat (Smith, 1998; Moran, 1998) for 21 days.
Control animals were implanted exactly the same way with empty (sham) silicone capsules. Animals were either sacrificed or tested 24 hrs after removal of the implant (P withdrawal).
On the day of testing, animals were injected with either THIP (1.25 mg/kg) or saline and tested 40 minutes after the injection.
Mice were tested on the plus maze, elevated 50 cm above the floor, in a room with low, indirect incandescent lighting and low noise levels. The plus maze consists of 2 enclosed arms (50×10×40 cm) and 2 open arms (50×10 cm) and is explained in detail in (Pellow, 1985).
The floor of all four arms was marked with grid lines every 25 cm. On the day of testing, each mouse was placed in the testing room for 30-40 minutes prior to testing in order to acclimatise to the situations. At the time of testing, each animal was tested for 10 minutes after exiting a start box in the centre platform of the plus maze. To be considered as an entry into any arm, the mouse must pass the line of the open platform with all four paws. The duration (in seconds) of time spent in the open arm was recorded from the time of entry into the open arm. Decreased time spent in the open arm generally indicates higher levels of anxiety (Pellow, 1985). Other behavioural measures recorded included the duration of time spent (in seconds) beyond the rail. The amount of time that subjects spend in the open portion of the plus maze in the absence of rails is considered to be more sensitive to anxiolytic agents (i.e. agents that would increase the amount of time spent in the open arm) than the amount of time spent in the open arms with rails (Fernandes, 1996). In order to measure general locomotor activity, the number of total grid crosses was counted. Lastly, the duration of time (in sec) spent grooming was also scored. The experimenter was blind to all conditions, and animals were tested in a randomised block design.
Data from the plus maze were analysed in a 2-way ANOVA (implant condition×injection condition) followed by a post-hoc ANOVA and post hoc t-test.

In a further test the test system is hippocampal cells. As to conditions: hippocampal cells after progesterone withdrawal; previous work; cited from earlier work.
Setting [1] is: female control (sham implant) mice.

“Also recorded” adds a separate entry of the source.

Turning to `Oc1noc2c1CCNC2` [THIP, THIP (Gaboxadol)], in the test with Female mice (PWD mice, dose of 1.25 mg/kg, 1.25 mg/kg), the “Reversal of the PWD effect in the plus maze” value was “completely reversed the PWD effect; also recorded: counteract the PWD completely”. In the test with Female mice (female PWD mice (24 hrs after removal of progesterone implant)), the “Time Open Arm, Mean” value was 157.023 s. Further, in the test with Female mice (female PWD mice), the “Grid Cross, Mean (number of total grid crosses, general locomotor activity)” value came to 83.333 and the “Time Outside Rail, Mean” value turned out to be 29.503 s. In addition, in the test on Female mice (setting [1]), the “Grid Cross, Mean (number of total grid crosses, general locomotor activity)” value turned out to be 52.000; the “Time Outside Rail, Mean” value worked out at 10.060 s; the “Time Open Arm, Mean” value stood at 38.377 s.

For `O=C1Nc2ccc(Cl)cc2C(c2ccccc2Cl)=NC1O` (centres unmarked) [lorazepam], the “Sensitivity of hippocampal cells to the GABA-potentiating effect” value in the test on hippocampal cells is listed as “striking insensitivity”.
